Source: patent US12427134B2, “Methods of reducing the risk of cardiovascular events in a subject with atrial fibrillation and/or atrial flutter” (priority 2019, dated 2025)

Columns and labels:
[1] = system: hypertriglyceridemic patients with cardiovascular disease or at high risk for cardiovascular disease; assay: REDUCE-IT: total (first and subsequent/recurrent) ischemic events analyses (negative binomial, Andersen-Gill, Wei-Lin-Weissfeld, joint frailty); format: in vivo, human; conditions: for Cardiovascular Death, HR (95% CI) / Non-fatal Cardiovascular Event, HR (95% CI): joint frailty model; for Key secondary composite endpoint, HR (95% CI) / Primary composite endpoint, HR (95% CI): modified WLW
Experimental: The primary outcome for the study was total recurrent events consisting of the composite of cardiovascular death, nonfatal myocardial infarction, nonfatal stroke, coronary revascularization, or hospitalization for unstable angina. Recurrent event analyses were also performed for the key secondary endpoint, a composite of cardiovascular death, non fatal myocardial infarction, or non-fatal stroke. For each of these composite endpoints, the effects of icosapent ethyl in the secondary and primary prevention strata were examined separately.
Demographic and baseline disease characteristics are presented using frequencies and percentages for categorical variables and medians with interquartile ranges for continuous variables. Between treatment group comparisons were derived using the chi-square test for categorical variables and Wilcoxon rank test for continuous variables. All clinical endpoint events used in the efficacy analyses were adjudicated by an independent Clinical Endpoint Committee (CEC) who were blinded to the treatment assignment. Since the primary efficacy endpoint was the time from randomization to the first occurrence of any component of the composite endpoint, and recurrence of such events within each patient is possible, a pre-specified analysis using a Cox proportional-hazard with the counting-process formulation of Andersen and Gill was performed to model the first and all recurrent cardiovascular events. Hazard ratios (HR) and corresponding 95% confidence intervals (CI) are reported from this model. In addition, as a marginal model and an extension of survival models based on the Cox proportional hazard model, the modified Wei-Lin-Weissfeld (WLW) method for analysis of recurrent events in the presence of deaths was carried out as a supportive analysis. In addition, as pre-specified, a recurrent event analysis using the Andersen-Gill and Wei-Lin-Weissfeld methods were carried out for the individual primary event components other than CV death. Though not pre-specified, additional recurrent event analyses were performed for the key secondary endpoint, which is a composite of CV death, non-fatal MI, or non-fatal stroke, and for the primary endpoint and the key secondary endpoint in the primary and secondary prevention strata to explore further the consistency of clinical benefit of icosapent ethyl. In subgroup analyses of the two cardiovascular risk strata (i.e., primary and secondary prevention), site-level discrepancies in cardiovascular risk group assignment occurring at entry and detected during the study (1.8%) were adjusted to conform with documented medical history data prior to randomization. All efficacy analyses were performed according to the intention-to-treat principle. All tests were based on a 2-sided nominal significance level of 5% with no adjustments for multiple comparisons.
The following study was a multi-center, placebo-controlled clinical trial the details of which are described above in Example 1, the REDUCE-IT design. […] The main outcomes were total primary composite endpoint events defined as cardiovascular death, nonfatal myocardial infarction, nonfatal stroke, coronary revascularization, or hospitalization for unstable angina and total key secondary composite endpoint events defined as cardiovascular death, nonfatal myocardial infarction, or nonfatal stroke. In the context of this study, total events refer to any first event as well as any subsequent event. Differences in total events were determined using other statistical models, including Andersen-Gill, Wei-Lin-Weisfeld (Li and Lagakos), both pre-specified, and a post hoc and joint-frailty analysis.
For the present prespecified analysis, the primary outcome was the total of first plus subsequent ischemic events consisting of the composite of cardiovascular death, nonfatal myocardial infarction, nonfatal stroke, coronary revascularization, or hospitalization for unstable angina. […]

[2] = system: patients receiving icosapent ethyl therapy; assay: Postmarket safety analysis of icosapent ethyl (VASCEPA); format: in vivo, human
Text: Over 320,000 patients are currently receiving icosapent ethyl (referenced interchangeably with AMR101 or VASCEPA®) therapy. With over 7 years of postmarket experience, there have been no signals necessitating a label change and no actions taken for safety reasons. Of the patients undergoing treatment with icosapent ethyl, a total of 1,204 unique adverse events (AEs) have been reported. However, there have been no signals of atrial fibrillation and flutter identified in the postmarket reports.

[3] = Andersen-Gill (I), adjusted, full dataset
[4] = Andersen-Gill (I), adjusted, reduced dataset
[5] = Andersen-Gill (I), unadjusted, full dataset
[6] = Andersen-Gill (I), unadjusted, reduced dataset
[7] = Andersen-Gill (II), adjusted, full dataset
[8] = Andersen-Gill (II), adjusted, reduced dataset
[9] = Andersen-Gill (II), unadjusted, full dataset
[10] = Andersen-Gill (II), unadjusted, reduced dataset
[11] = as summarised in the Example 6 conclusion
[12] = including same-day recurrent events, ITT, denominator total number of events in category
[13] = key secondary endpoint, adjusted, reduced dataset
[14] = key secondary endpoint, unadjusted, reduced dataset
[15] = primary endpoint, adjusted, reduced dataset
[16] = primary endpoint, unadjusted, reduced dataset
[17] = first event, adjusted, full dataset
[18] = first event, adjusted, reduced dataset
[19] = first event, unadjusted, full dataset
[20] = first event, unadjusted, reduced dataset
[21] = second event, adjusted, full dataset
[22] = second event, adjusted, reduced dataset
[23] = second event, unadjusted, full dataset
[24] = second event, unadjusted, reduced dataset
[25] = third event, adjusted, full dataset
[26] = third event, adjusted, reduced dataset
[27] = third event, unadjusted, full dataset
[28] = third event, unadjusted, reduced dataset
[29] = negative binomial, adjusted, full dataset
[30] = negative binomial, adjusted, reduced dataset
[31] = negative binomial, unadjusted, full dataset
[32] = negative binomial, unadjusted, reduced dataset
[33] = per 100 patients treated for five years
[34] = per 1000 patients treated for five years
[35] = primary composite endpoint, after reduction, share of overall events in category
[36] = total events including same-day recurrent events, ITT, denominator total number of events in category

Compound: CC/C=C\C/C=C\C/C=C\C/C=C\C/C=C\CCCC(=O)OCC [AMR101, eicosapentaenoic acid ethyl ester]
- Total key secondary composite endpoint events, HR (95% CI) [1, 3]: 0.71
- Total primary composite endpoint events, HR (95% CI) [1, 3]: 0.68
- Total key secondary composite endpoint events, HR (95% CI) [1, 4]: 0.72
- Total primary composite endpoint events, HR (95% CI) [1, 4]: 0.69
- Total key secondary composite endpoint events, HR (95% CI) [1, 5]: 0.71
- Total primary composite endpoint events, HR (95% CI) [1, 5]: 0.68
- Total key secondary composite endpoint events, HR (95% CI) [1, 6]: 0.72
- Total primary composite endpoint events, HR (95% CI) [1, 6]: 0.69
- Total key secondary composite endpoint events, HR (95% CI) [1, 7]: 0.71
- Total primary composite endpoint events, HR (95% CI) [1, 7]: 0.68
- Total key secondary composite endpoint events, HR (95% CI) [1, 8]: 0.72
- Total primary composite endpoint events, HR (95% CI) [1, 8]: 0.69
- Total key secondary composite endpoint events, HR (95% CI) [1, 9]: 0.71
- Total primary composite endpoint events, HR (95% CI) [1, 9]: 0.68
- Total key secondary composite endpoint events, HR (95% CI) [1, 10]: 0.72
- Total primary composite endpoint events, HR (95% CI) [1, 10]: 0.69
- Total key secondary endpoints, number of events ([1]; Example 2, overall, 861 with placebo): 590
- Total key secondary endpoint events, rate ratio ([1]; Example 3): 0.72
- Total key secondary endpoint events, rate ratio [1, 11]: 0.71
- Total primary endpoint events, rate ratio [1, 11]: 0.69
- Key Secondary Endpoint Events: Others, % [1, 12]: (52.9) %
- Key Secondary Endpoint Events: ≥1 event, % [1, 12]: (43.1) %
- Key Secondary Endpoint Events: ≥2 events, % [1, 12]: (37.9) %
- Key Secondary Endpoint Events: ≥3 events, % [1, 12]: (35.1) %
- Key Secondary Endpoint Events: ≥4 events, % [1, 12]: (42.9) %
- Primary Endpoint Events: Others, % [1, 12]: (35.0) %
- Primary Endpoint Events: ≥1 event, % [1, 12]: (43.9) %
- Primary Endpoint Events: ≥2 events, % [1, 12]: (39.2) %
- Primary Endpoint Events: ≥3 events, % [1, 12]: (35.3) %
- Primary Endpoint Events: ≥4 events, % [1, 12]: (27.9) %
- Cardiovascular Death, HR (95% CI) [1, 13]: 0.79
- Non-fatal Cardiovascular Event, HR (95% CI) [1, 13]: 0.68
- Cardiovascular Death, HR (95% CI) [1, 14]: 0.79
- Non-fatal Cardiovascular Event, HR (95% CI) [1, 14]: 0.68
- Cardiovascular Death, HR (95% CI) [1, 15]: 0.80
- Non-fatal Cardiovascular Event, HR (95% CI) [1, 15]: 0.67
- Cardiovascular Death, HR (95% CI) [1, 16]: 0.80
- Non-fatal Cardiovascular Event, HR (95% CI) [1, 16]: 0.66
- Key secondary endpoint: fatal events, % ([1]; key secondary composite endpoint, after reduction, share of overall events in category): 45.0%
- Key secondary endpoint: total events before reduction, % ([1]; key secondary composite endpoint, before reduction, share of overall events in category): 42.0%
- Key secondary composite endpoint, HR (95% CI) [1, 17]: 0.74
- Primary composite endpoint, HR (95% CI) [1, 17]: 0.75
- Key secondary composite endpoint, HR (95% CI) [1, 18]: 0.74
- Primary composite endpoint, HR (95% CI) [1, 18]: 0.75
- Key secondary composite endpoint, HR (95% CI) [1, 19]: 0.74
- Primary composite endpoint, HR (95% CI) [1, 19]: 0.76
- Key secondary composite endpoint, HR (95% CI) [1, 20]: 0.74
- Primary composite endpoint, HR (95% CI) [1, 20]: 0.76
- Key secondary composite endpoint, HR (95% CI) [1, 21]: 0.75
- Primary composite endpoint, HR (95% CI) [1, 21]: 0.68
- Key secondary composite endpoint, HR (95% CI) [1, 22]: 0.75
- Primary composite endpoint, HR (95% CI) [1, 22]: 0.68
- Key secondary composite endpoint, HR (95% CI) [1, 23]: 0.75
- Primary composite endpoint, HR (95% CI) [1, 23]: 0.69
- Key secondary composite endpoint, HR (95% CI) [1, 24]: 0.75
- Primary composite endpoint, HR (95% CI) [1, 24]: 0.69
- Key secondary composite endpoint, HR (95% CI) [1, 25]: 0.79
- Primary composite endpoint, HR (95% CI) [1, 25]: 0.70
- Key secondary composite endpoint, HR (95% CI) [1, 26]: 0.79
- Primary composite endpoint, HR (95% CI) [1, 26]: 0.69
- Key secondary composite endpoint, HR (95% CI) [1, 27]: 0.79
- Primary composite endpoint, HR (95% CI) [1, 27]: 0.70
- Key secondary composite endpoint, HR (95% CI) [1, 28]: 0.79
- Primary composite endpoint, HR (95% CI) [1, 28]: 0.69
- Total primary endpoint events, rate ratio ([1]; negative binomial model, Example 3): 0.70
- Total key secondary composite endpoint events, HR (95% CI) [1, 29]: 0.71
- Total primary composite endpoint events, RR (95% CI) [1, 29]: 0.69
- Total key secondary composite endpoint events, RR (95% CI) [1, 30]: 0.72
- Total primary composite endpoint events, RR (95% CI) [1, 30]: 0.70
- Total key secondary composite endpoint events, RR (95% CI) [1, 31]: 0.71
- Total primary composite endpoint events, RR (95% CI) [1, 31]: 0.67
- Total key secondary composite endpoint events, RR (95% CI) [1, 32]: 0.71
- Total primary composite endpoint events, RR (95% CI) [1, 32]: 0.68
- Total key secondary endpoint events, HR ([1]; overall): 0.71
- Cardiovascular deaths that could be prevented [1, 33]: 1
- Coronary revascularizations that could be prevented [1, 33]: 8
- Episodes of unstable angina that could be prevented [1, 33]: 2
- Myocardial infarctions that could be prevented [1, 33]: 4
- Strokes that could be prevented [1, 33]: 1
- Cardiovascular deaths that could be prevented [1, 34]: 12
- Coronary revascularizations that could be prevented [1, 34]: 76
- Episodes of hospitalization for unstable angina that could be prevented [1, 34]: 16
- Myocardial infarctions that could be prevented [1, 34]: 42
- Strokes that could be prevented [1, 34]: 14
- Primary endpoint: fatal events, % [1, 35]: (45.0) %
- Primary endpoint: total events after reduction, % [1, 35]: (41.0) %
- Total key secondary endpoint events, HR ([1]; primary prevention stratum): 0.71
- Total key secondary endpoint events, HR ([1]; secondary prevention stratum): 0.70
- Key Secondary Endpoint Events, % [1, 36]: (42.0) %
- Primary Endpoint Events, % [1, 36]: (40.7) %
- Individual serious AEs ([2]; human, in vivo): 69
- Serious and unexpected AE reports ([2]; human, in vivo): 48
- Unique adverse events (AEs) reported ([2]; human, in vivo): 1,204
- Unique nonserious AEs ([2]; human, in vivo): 1,156
- Reports with fatal outcomes ([2]; postmarket): Four
